According to patent US7799813B2, “Salts of substituted 5-membered azacycle and use thereof in the treatment of diseases related to protein aging” (Beijing Molecule Science and Technology Co., Ltd., priority 2006, dated 2010):

Legend:
[1] = system: AGE-BSA-collagen cross-links; assay: Elisa screening experiment on the breaking of AGE-BSA collagen cross-links; format: biochemical, rat; conditions: 37° C., 16 hours, OD 450 nm, averages of more than three screening results
Experimental: AGE cross-links were prepared in vitro by cross-linking AGE-BSA to rat tail tendon collagen-coated 96 well microtiter plates. ELISA method was used to evaluate the breaking effect of the compounds on AGE cross-links.
Normal Wister rats (body weight 200±20 g) were sacrificed acutely, then the tails were excised, and tail collagen was prepared at a temperature of 4° C. as follows: tail tendon collagen fibrils were taken out, washed with physiological saline, peeled off non-collagen fibril tissue, rinsed with distilled deionized water 3 times, cut into pieces, and immersed in 0.1% acetic acid at 4° C. for one week during which the immersion liquid was shaken frequently. Finally, the immersion liquid was subjected to a centrifuge treatment at 8000 G for 30 minutes, and supernatant collagen solution was collected. After dilution, protein content was measured. 96 well microtiter plates (Costar) were full-well coated with the collagen solution in an amount of 70 μg/well at 4° C. for 24 hours, then the coating solution was discarded. The plates were dried in air under sterile condition, coated with a fresh-keeping film, and finally stored at 4° C. for use.
A solution containing 50 mg/ml of bovine serum albumin BAS (V) (Roch) and 0.5M of glucose in 0.2M PBS (pH 7.4) was incubated at 37° C. under sterile condition for 3-4 months, to thereby form glycosylated BSA, i.e. BSA-AGE. At the same time, non-glycosylated BSA was prepared with glucose-free BSA. Then the BSA-AGE solution was dialyzed against 0.01M PBS (pH 7.4) to be removed of unreacted glucose. Fluorescence scanning (Exi/Em (395/460 nm)) and SDS-PAGE were used to check the formation of BSA-AGE, and protein concentration was determined by the Lowery method.
The tail collagen-coated 96 well microtiter plates were full-well treated with PBS (pH 7.4) for 1 hour to neutralize the acidic collagen. Then the plates were blocked with Superblock (PIERCE) at 37° C. for 1 hour, and washed with PBST (PBS-Tween) three times while shaking for 1 minute for each time of washing. AGE-BSA was diluted in PBS to a concentration required to obtain maximum cross-linking. 100 μl of the AGE-BSA solution was added to wells in the rows labeled as A, B, C, and D of the 96 well plates, and BSA solution of the same concentration was added to wells in the rows labeled as E, F, G, and H. The first three wells in each row were filled with PBS for the reagent blank. The plates were incubated at 37° C. for 4 hours to allow the collagen crosslink, and washed with PBST four times while shaking for 1 minute for each time of washing. Test compounds were diluted in PBS of pH 7.4. A test compound was added to quadruplicate AGE-BSA cross-links wells and quadruplicate BSA wells in an amount of 100 μl/well. PBS was added in an amount of 100 μl/well in the same way as non-breaking contrast. The plates were incubated at 37° C. for 16 hours and washed four times with PBST while shaking for 1 minute for each time of washing. 80 μl/well of Rabbit-anti-BSA antibody (1:500) was added to the wells and the plates were incubated at 37° C. for 50 minutes. After the plates were washed with PBST four times while shaking for 1 minute for each time of washing, 80 μl/well of horseradish peroxidase-labelled-goat-anti-rabbit IgG (1:1000) was added to the wells. The plates were incubated at 37° C. for 50 minutes, and then washed with PBST three times while shaking for 1 minute for each time of washing. 100 μl/well of TMB substrate (3,3′,5,5′-tetramethylbenzidine) was added to the wells. The plates were incubated at room temperature at dark place for 20 minutes. 2M H2SO4 was used to terminate the reaction. Within 10 minutes after the reaction, optical density was read at 450 nm on the BOBRAD Model 550 plate reader with the blank wells of the plates was set to 0.
The average optical density (OD) was calculated for each quadruplicate determination. […]

Row | SMILES | Breaking rate (decrease % in OD) ([1]; test compound 0.1 mmol/L) | Breaking rate (decrease % in OD) ([1]; test compound 1 mmol/L) | melting point
1 | Cc1sc[n+](CC(=O)c2ccccc2)c1C.[Cl-] [ALT-711, reference compound] | 13.4 ± 6.41% | 15.2 ± 8.43% | 
2 | Cc1sc[n+](CC(=O)OCc2ccccc2)c1C.[Br-] [Compound 1, 3-benzyloxycarbonylmethyl-4,5-dimethyl-thiazole-3-bromide] | 9.65 ± 3.55% | 10.81 ± 3.86% | 
3 | Cc1c(CCO)sc[n+]1CC(=O)OCc1ccccc1.[Br-] [Compound 2, 3-benzyloxycarbonylmethyl-5-(2-hydroxyethyl)-4-methyl-thiazole-3-bromide] | 13.5 ± 9.53% | 13.25 ± 10.29% | 
4 | Cc1csc[n+]1CC(=O)OCc1ccccc1.[Br-] [Compound 3, 3-benzyloxycarbonylmethyl-4-methyl-thiazole-3-bromide] | 16.16 ± 7.07% | 26.46 ± 18.2% | 217 to 218 °C
5 | O=C(C[n+]1csc2c1CCCC2)OCc1ccccc1.[Br-] [Compound 4, 3-benzyloxycarbonylmethyl-4,5,6,7-tetrahydro-benzothiazole-3-bromide] | 8.45 ± 5.35% | 7.17 ± 2.40% | 160 to 166 °C
6 | Cc1csc[n+]1CC(=O)O.[Br-] [Compound 5, 3-carboxymethyl-4-methyl-thiazole-3-bromide] |  |  | 223 to 230 °C
